Assay results reported in US20230144436A1, “MUSCLE TARGETING COMPLEXES AND USES THEREOF FOR TREATING MYOTONIC DYSTROPHY” (Dyne Therapeutics, Inc., priority 2020, published 2023).

Test system: DMPK
Assay: DMPK knockdown by transfected antisense oligonucleotides in DM1 C15 myotubes at 0.5 nM and 50 nM
Format: cell-based
Conditions: 72 hours; for Normalized DMPK Remaining: relative to vehicle control = 1.00
In short: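 DMPK remaining was measured by qPCR 72 h post-transfection, normalized to lipofectamine-only vehicle wells (=1.00). Oligonucleotides were delivered at 0.5 and 50 nM final to DM1 C15 myoblasts differentiated seven days into myotubes, in triplicate.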

[1] = 0.5 nM oligonucleotide, qPCR, relative to vehicle control
[2] = 50 nM oligonucleotide, qPCR, relative to vehicle control

| Substance | Percent DMPK Reduction [1] [%] | Normalized DMPK Remaining (0.5 nM oligonucleotide, qPCR) | Percent DMPK Reduction [2] [%] | Normalized DMPK Remaining (50 nM oligonucleotide, qPCR) | Percent DMPK Reduction (0.5 nM oligonucleotide) [%] | Normalized DMPK Remaining (0.5 nM oligonucleotide) | Percent DMPK Reduction (50 nM oligonucleotide) [%] | Normalized DMPK Remaining (50 nM oligonucleotide) |
| --- | --- | --- | --- | --- | --- | --- | --- | --- |
| 330 (CCAGCGCCCACCAGUCACAC; chemistry not given here) [compound 330] | 36.17 | 0.64 | 70.96 | 0.29 |  |  |  |  |
| 435 (GCCUGUCAGCGAGUCGGAGG; chemistry not given here) [compound 435] |  |  |  |  | 10.81 | 0.89 | 75.67 | 0.24 |
| 383 (CGGGCCCGGAUCACAGGACU; chemistry not given here) [compound 383] |  |  |  |  | 17.45 | 0.83 | 67.11 | 0.33 |
| 339 (CUCCGCCAGGUAGAAGCGCG; chemistry not given here) [compound 339] | 30.22 | 0.70 | 78.14 | 0.22 |  |  |  |  |
| 351 (UGAUGUCCCUGUGCACGUAG; chemistry not given here) [compound 351] | 20.58 | 0.79 | 59.00 | 0.41 |  |  |  |  |
| 344 (UCUGCCGCAGGGACAGCCGC; chemistry not given here) [compound 344] | 22.97 | 0.77 | 82.10 | 0.18 |  |  |  |  |
| 396 (ACAGACAAUAAAUACCGAGG; chemistry not given here) [compound 396] |  |  |  |  | -3.95 | 1.04 | 74.02 | 0.26 |
| 439 (CACCAACACGUCCCUCUCCU; chemistry not given here) [compound 439] |  |  |  |  | 37.51 | 0.62 | 81.57 | 0.18 |
| 282 (AAAGCGCCUCCGAUAGGCCA; chemistry not given here) [compound 282] | 19.89 | 0.80 | 62.04 | 0.38 |  |  |  |  |
| 440 (CAGGAGCAGGGAAAGCGCCU; chemistry not given here) [compound 440] |  |  |  |  | 12.48 | 0.88 | 51.82 | 0.48 |
| 414 (UAGAACAUUUCAUAGGCGAA; chemistry not given here) [compound 414] |  |  |  |  | 20.23 | 0.80 | 43.67 | 0.56 |
| 370 (ACUUGUUCAUGAUCUUCAUG; chemistry not given here) [compound 370] | 25.47 | 0.75 | 52.89 | 0.47 |  |  |  |  |
| 367 (GAUGUCCCUGUGCACGUAGC; chemistry not given here) [compound 367] | 18.99 | 0.81 | 62.46 | 0.38 |  |  |  |  |
| 413 (GACAGACAAUAAAUACCGAG; chemistry not given here) [compound 413] |  |  |  |  | 18.26 | 0.82 | 38.07 | 0.62 |
| 255 (GUUGCGGGUUUGAUGUCCC; chemistry not given here) [compound 255] | 33.31 | 0.67 | 61.07 | 0.39 |  |  |  |  |
| 452 (CGGCCUCAGCCUCUGCCGCA; chemistry not given here) [compound 452] |  |  |  |  | 6.71 | 0.93 | 60.06 | 0.40 |
| 266 (AAUACUCCAUGACCAGGUAC; chemistry not given here) [compound 266] | 28.86 | 0.71 | 52.07 | 0.48 |  |  |  |  |
| 292 (GCCUCUGCCUCGCGUAGUUG; chemistry not given here) [compound 292] | 35.38 | 0.65 | 81.18 | 0.19 |  |  |  |  |
| 317 (AUCCGCUCCUGCAACUGCCG; chemistry not given here) [compound 317] | 12.80 | 0.87 | 40.06 | 0.60 |  |  |  |  |
| 323 (UUGAUGUCCCUGUGCACGUA; chemistry not given here) [compound 323] | 25.67 | 0.74 | 55.13 | 0.45 |  |  |  |  |

| Substance | Percent DMPK Reduction [1] [%] | Normalized DMPK Remaining (0.5 nM oligonucleotide, qPCR) | Percent DMPK Reduction [2] [%] | Normalized DMPK Remaining (50 nM oligonucleotide, qPCR) | Percent DMPK Reduction (0.5 nM oligonucleotide) [%] | Normalized DMPK Remaining (0.5 nM oligonucleotide) | Percent DMPK Reduction (50 nM oligonucleotide) [%] | Normalized DMPK Remaining (50 nM oligonucleotide) |
| --- | --- | --- | --- | --- | --- | --- | --- | --- |
| 475 (GCCUCAGCCUGGCCGAAAGA; chemistry not given here) [compound 475] |  |  |  |  | -4.82 | 1.05 | 63.11 | 0.37 |
| 454 (GCAGAGAGAGGUGCUCCUUG; chemistry not given here) [compound 454] |  |  |  |  | 17.29 | 0.83 | 85.95 | 0.14 |
| 297 (CUCAGGCUCUGCCGGGUGAG; chemistry not given here) [compound 297] | 30.13 | 0.70 | 63.07 | 0.37 |  |  |  |  |
| 353 (GGCGAAUACACCCAGCGCCC; chemistry not given here) [compound 353] | 19.77 | 0.80 | 68.72 | 0.31 |  |  |  |  |
| 306 (AGGGACAGCCGCUGGAACTG; chemistry not given here) [compound 306] | 28.72 | 0.71 | 45.34 | 0.55 |  |  |  |  |
| 393 (UUGGCCGGCGUGGGCCACCA; chemistry not given here) [compound 393] |  |  |  |  | -3.19 | 1.03 | 44.37 | 0.56 |
| 459 (GCUUGCUGCCUUCCCAGGCC; chemistry not given here) [compound 459] |  |  |  |  | 1.14 | 0.99 | 81.01 | 0.19 |
| 254 (UUGUCGGGUUUGAUGUCCCU; chemistry not given here) [compound 254] | 34.16 | 0.66 | 55.56 | 0.44 |  |  |  |  |
| 350 (ACUUGCUCAGCAGUGUCAGC; chemistry not given here) [compound 350] | 27.84 | 0.72 | 60.71 | 0.39 |  |  |  |  |
| 401 (CUCUGCCGGGUGAGCACCUC; chemistry not given here) [compound 401] |  |  |  |  | 25.25 | 0.75 | 74.36 | 0.26 |
| 268 (UCAGUGCAUCCAAAACGUGG; chemistry not given here) [compound 268] | 15.76 | 0.84 | 42.06 | 0.58 |  |  |  |  |
| 462 (UCUGCCUCGCGUAGUGACU; chemistry not given here) [compound 462] |  |  |  |  | 3.53 | 0.96 | 86.86 | 0.13 |
| 290 (GGCCAUGACAAUCUCCGCCA; chemistry not given here) [compound 290] | 42.38 | 0.58 | 75.00 | 0.25 |  |  |  |  |
| 360 (GACAAUAAAUACCGAGGAAU; chemistry not given here) [compound 360] | 28.97 | 0.71 | 47.51 | 0.52 |  |  |  |  |
| 450 (ACAGAACAACGGCGAACAGG; chemistry not given here) [compound 450] |  |  |  |  | 2.07 | 0.98 | 55.96 | 0.44 |
| 470 (AUUUCAUAGGCGAAUACACC; chemistry not given here) [compound 470] |  |  |  |  | -4.54 | 1.05 | 44.15 | 0.56 |
| 479 (UUGUAGUGGACGAUCUUGCC; chemistry not given here) [compound 479] |  |  |  |  | 17.22 | 0.83 | 81.05 | 0.19 |
| 305 (UGAUCUUCAUGGCAUACACC; chemistry not given here) [compound 305] | 27.70 | 0.72 | 89.68 | 0.10 |  |  |  |  |
| 437 (CAUCCGCUCCUGCAACUGCC; chemistry not given here) [compound 437] |  |  |  |  | 21.04 | 0.79 | 76.81 | 0.23 |
